This is an account of results in patent US10100052B2, “Compounds for the treatment of hepatitis B virus infection” (Gilead Sciences, Inc., priority 2016, dated 2018).

Data set [1] has as its system HBsAg. In words: PHH assay for inhibition of HBsAg. It counts as cell-based, genotype D (AD38-derived) HBV in primary human hepatocytes. The conditions noted are these: Hepatitis B virus, 288 h, read-out: HBsAg EC50. As to the method: Primary human hepatocytes (PHH) (Bioreclamation IVT) were plated on collagen-coated flasks using Plating Media (Life Technologies) containing William's Medium E supplemented with 1% penicillin/streptomycin, 4 μg/mL human recombinant insulin, 2 mM GlutaMAX, 15 mM HEPES, 1 μM dexamethasone, 5% fetal bovine serum, and 0.2% Torpedo Antibiotic Mix (Bioreclamation IVT). After a 4-hour incubation at 37° C., cells were switched to Maintenance Media (Life Technologies) containing William's Medium E supplemented with 0.5% penicillin/streptomycin, 6.25 µg/mL human recombinant insulin, 6.25 μg/mL human transferrin, 6.25 ng/mL selenous acid, 1.25 mg/mL bovine serum albumin, 5.35 μg/mL linoleic acid, 2 mM GlutaMAX, 15 mM HEPES, 0.1 μM dexamethasone, 2% fetal bovine serum, 2% DMSO, and 0.2% Torpedo Antibiotic Mix (Bioreclamation IVT). On the next day, PHH were infected with 500 genome equivalent per cell of genotype D (AD38-derived) HBV in Maintenance Media supplemented with 4% PEG 8000 (Promega). After 24 hour incubation, cells were washed three times with William's Medium E and fed with fresh Maintenance Media. At 3 days after infection, infected PHH cells were seeded on 96-well plates pre-coated with collagen at a density of 65000 cells per well containing serially diluted solutions of certain compounds disclosed herein or DMSO (1% final concentration) in a final volume of 125 μl of Maintenance Media (Life Technologies) containing William's Medium E supplemented with 0.5% penicillin/streptomycin, 6.25 μg/mL human recombinant insulin, 6.25 μg/mL human transferrin, 6.25 ng/mL selenous acid, 1.25 mg/mL bovine serum albumin, 5.35 μg/mL linoleic acid, 2 mM GlutaMAX, 15 mM HEPES, 0.1 μM dexamethasone, 5% fetal bovine serum, 1 mM 1-amininobenzotriaole, and 0.2% Torpedo Antibiotic Mix (Bioreclamation IVT). Media with compounds was replenished every 2-3 days. After an incubation time of 12 days, secreted HBsAg in the supernatant were measured using a multiplex chemiluminescent (Mesoscale discovery, MSD) assay using capture and detection antibody pairs specific for HBsAg. Comparative Example 1 and Comparative Example 2 have the following structures and were prepared according to International Publication No. WO 2015/113990.

A short description of data set [2]: MT-4 cytotoxicity assay. Format: cell-based. The note with it: human, five days incubation, Cell Titer Glo. Here is the method:
The MT-4 cell line (HTLV-1 transformed, human T lymphoblastoid cells) was obtained from the NIH AIDS Reagent program (Bethesda, Md.). MT-4 cells were maintained in RPMI-1640 supplemented with 10% fetal bovine serum (FBS, Hyclone, Logan, Utah). All cell culture media were also supplemented with 100 Units/mL penicillin, 100 μg/mL streptomycin (Gibco). For the MT-4 cytotoxicity assay, 0.4 μL of serially diluted solutions of certain compounds disclosed herein were added to 40 μL of cell maintenance media in 384-well black, solid bottom plate using a Biomek FX workstation (Beckman Coulter). Two thousand cells in 35 μL were added to each well using a Biotek uFlow Workstation (Biotek). Each assay plate contained 10 μM puromycin (final concentration) and 0.5% DMSO in RPMI-1640 as positive and negative controls, respectively. Assay plates were incubated for five days at 37° C. in an incubator set at 5% CO2 and 90% humidity. After five days, 22 μL of Cell Titer Glo reagent (Promega) was added to the assay plates with a Biotek uFlow Workstation. Plates were subsequently placed on a Perkin Elmer Envision Plate Reader for five minutes before the luminescence signal was read. CC50 values were calculated by non-linear regression using Pipeline Pilot software by applying a four parameter fit equation (Accelrys, San Diego, Calif.) and are reported in the following Table 2.
A general note: In ATP-based viability assays light output follows the ATP content of the culture.

The structures appear in SMILES notation. pEC50: −log10 of the molar value. A value given as a limit tells only on which side of the number the result lay.

Usually pEC50 stands for −log10 of the EC50, conventionally taken in molar units. In general, CC50 refers to the concentration that lowers cell viability or growth by half. A lower CC50 goes with greater toxicity to the cells. As for `COCCCOc1cc2c(cc1Cl)-c1cc(=O)c(C(=O)O)cn1N(C)C2` [Example 1, 10-chloro-9-(3-methoxypropoxy)-6-methyl-2-oxo-6,7-dihydro-2H-pyrido[2,1-a]phthalazine-3-carboxylic acid], the pEC50 in data set [1] was 6.44. This compound gave a CC50 at 5 days in data set [2] of 8900 nM.
Take `COCCCOc1cc2c(cc1Cl)-c1cc(=O)c(C(=O)O)cn1N(C1(C)CCC1)C2` [Example 7, 10-chloro-9-(3-methoxypropoxy)-6-(1-methylcyclobutyl)-2-oxo-6,7-dihydro-2H-pyrido[2,1-a]phthalazine-3-carboxylic acid]: in data set [1], the negative-log EC50 (pEC50) is 8.17. Besides, the CC50 at 5 days in data set [2] (MT-4 cells) is over 10000 nM.
For `COCCCOc1cc2c(cc1Cl)-c1cc(=O)c(C(=O)O)cn1N(C1(C(F)(F)F)CC1)C2` [Example 3, 10-chloro-9-(3-methoxypropoxy)-2-oxo-6-(1-(trifluoromethyl)cyclopropyl)-6,7-dihydro-2H-pyrido[2,1-a]phthalazine-3-carboxylic acid], in that order: 8.51 and over 10000 nM.
As to `COCCCOc1cc2c(cc1OC)-c1cc(=O)c(C(=O)O)cn1N(C(C)(C)C)C2` [Example 10, 6-(tert-butyl)-10-methoxy-9-(3-methoxypropoxy)-2-oxo-6,7-dihydro-2H-pyrido[2,1-a]phthalazine-3-carboxylic acid], the negative logarithm of the EC50 (pEC50) in data set [1] is 8.80. The compound further displayed a CC50 at 5 days in data set [2] (MT-4 cells) of over 10000 nM.
For `COCCCOc1cc2c(cc1Cl)-c1cc(=O)c(C(=O)O)cn1N(C(C)(C)COC)C2` [Example 8, 10-chloro-6-(1-methoxy-2-methylpropan-2-yl)-9-(3-methoxypropoxy)-2-oxo-6,7-dihydro-2H-pyrido[2,1-a]phthalazine-3-carboxylic acid], in that order: 7.96 and over 10000 nM.
As for `COCCCOc1cc2c(cc1Cl)-c1cc(=O)c(C(=O)O)cn1N(C1(C(F)(F)F)CCC1)C2` [Example 4, 10-chloro-9-(3-methoxypropoxy)-2-oxo-6-(1-(trifluoromethyl)cyclobutyl)-6,7-dihydro-2H-pyrido[2,1-a]phthalazine-3-carboxylic acid], in data set [1], the pEC50 is 7.95. This compound came in with a CC50 at 5 days in data set [2] (MT-4 cells) of 8100 nM.
As for `COCCCOc1cc2c(cc1Cl)-c1cc(=O)c(C(=O)O)cn1N(CC(C)(C)C)C2` [Example 18, 10-chloro-9-(3-methoxypropoxy)-6-neopentyl-2-oxo-6,7-dihydro-2H-pyrido[2,1-a]phthalazine-3-carboxylic acid], the negative-log EC50 (pEC50) in data set [1] is 6.78. For the same compound, the CC50 at 5 days in data set [2] (MT-4 cells) is over 10000 nM.
As to `COCCCOc1cc2c(cc1Cl)-c1cc(=O)c(C(=O)O)cn1N(C1(C)CC(F)(F)C1)C2` [Example 19, 10-chloro-6-(3,3-difluoro-1-methylcyclobutyl)-9-(3-methoxypropoxy)-2-oxo-6,7-dihydro-2H-pyrido[2,1-a]phthalazine-3-carboxylic acid], the pEC50 in data set [1] was 7.00. Further, in data set [2] (MT-4 cells), the CC50 at 5 days was over 10000 nM.
Take `[2H]C([2H])([2H])OCCCOc1cc2c(cc1Cl)-c1cc(=O)c(C(=O)O)cn1N(C(C)(C)C)C2` [Example 12, 6-(tert-butyl)-10-chloro-9-(3-(methoxy-d3)propoxy)-2-oxo-6,7-dihydro-2H-pyrido[2,1-a]phthalazine-3-carboxylic acid]: in data set [1], the pEC50 was 8.11. The same compound displayed a CC50 at 5 days in data set [2] (MT-4 cells) of 9300 nM.
For `COCCCOc1cc2c(cc1Cl)-c1cc(=O)c(C(=O)O)cn1N(C13CC(C1)C3)C2` [Example 5, 6-(bicyclo[1.1.1]pentan-1-yl)-10-chloro-9-(3-methoxypropoxy)-2-oxo-6,7-dihydro-2H-pyrido[2,1-a]phthalazine-3-carboxylic acid], in that order: 8.40 and over 10000 nM.
On to `COCCCOc1cc2c(cc1OC)-c1cc(=O)c(C(=O)O)cn1N(C(C)(C)C(F)(F)F)C2` [Example 15, 10-methoxy-9-(3-methoxypropoxy)-2-oxo-6-(1,1,1-trifluoro-2-methylpropan-2-yl)-6,7-dihydro-2H-pyrido[2,1-a]phthalazine-3-carboxylic acid], for which the pEC50 in data set [1] is 7.60. Also, the CC50 at 5 days in data set [2] (MT-4 cells) was over 10000 nM.
For `CCC(C)(C)N1Cc2cc(OCCCOC)c(Cl)cc2-c2cc(=O)c(C(=O)O)cn21` [Example 17, 10-chloro-9-(3-methoxypropoxy)-2-oxo-6-(tert-pentyl)-6,7-dihydro-2H-pyrido[2,1-a]phthalazine-3-carboxylic acid], in that order: 7.53 and over 10000 nM.
Regarding `COCCCOc1cc2c(cc1OC)-c1cc(=O)c(C(=O)O)cn1N(C1(C(F)(F)F)CC1)C2` [Example 14, 10-methoxy-9-(3-methoxypropoxy)-2-oxo-6-(1-(trifluoromethyl)cyclopropyl)-6,7-dihydro-2H-pyrido[2,1-a]phthalazine-3-carboxylic acid], the pEC50 in data set [1] was 8.06. Moreover, the 50% cytotoxic concentration (CC50) at 5 days in data set [2] (MT-4 cells) was over 10000 nM.
Regarding `COCCCOc1cc2c(cc1OC)-c1cc(=O)c(C(=O)O)cn1N(C(C)(C)COC)C2` [Example 11, 10-methoxy-6-(1-methoxy-2-methylpropan-2-yl)-9-(3-methoxypropoxy)-2-oxo-6,7-dihydro-2H-pyrido[2,1-a]phthalazine-3-carboxylic acid], the CC50 at 5 days in data set [2] (MT-4 cells) was over 10000 nM.
For the compound `COCCCOc1cc2c(cc1Cl)-c1cc(=O)c(C(=O)O)cn1N(C(C)(C)CO)C2` [Example 16, 10-chloro-6-(1-hydroxy-2-methylpropan-2-yl)-9-(3-methoxypropoxy)-2-oxo-6,7-dihydro-2H-pyrido[2,1-a]phthalazine-3-carboxylic acid], the pEC50 in data set [1] was 7.17. In data set [2] (MT-4 cells), the half-maximal cytotoxic concentration (CC50) at 5 days was over 10000 nM.
For `CC(C)(C)N1Cc2cc(OCCOCC(F)(F)F)c(Cl)cc2-c2cc(=O)c(C(=O)O)cn21` [Example 13, 6-(tert-butyl)-10-chloro-2-oxo-9-(2-(2,2,2-trifluoroethoxy)ethoxy)-6,7-dihydro-2H-pyrido[2,1-a]phthalazine-3-carboxylic acid], the negative logarithm of the EC50 (pEC50) in data set [1] was 7.23. Moreover, in data set [2] (MT-4 cells), it took 5200 nM to reach half-maximal cytotoxicity (CC50 at 5 days).
Compound `COCCCOc1cc2c(cc1Cl)-c1cc(=O)c(C(=O)O)cn1N(C(C)(C)C(F)(F)F)C2` [Example 9, 10-chloro-9-(3-methoxypropoxy)-2-oxo-6-(1,1,1-trifluoro-2-methylpropan-2-yl)-6,7-dihydro-2H-pyrido[2,1-a]phthalazine-3-carboxylic acid] showed a cytotoxic concentration (CC50) at 5 days in data set [2] (MT-4 cells) of over 10000 nM.
Still for that read-out and setting: next, `COCCCOc1cc2c(cc1Cl)-c1cc(=O)c(C(=O)O)cn1N(C1(C)CC1)C2` [Example 6, 10-chloro-9-(3-methoxypropoxy)-6-(1-methylcyclopropyl)-2-oxo-6,7-dihydro-2H-pyrido[2,1-a]phthalazine-3-carboxylic acid]: over 10000 nM.
